Test results published in patent US6368788B1 (priority 1987, dated 2002).

Tests used:
[1] = Frequently ill children with respiratory infection, asthma and allergy (Protocol C); format: in vivo, human
hepatitis B = assay: Children with chronic persistent hepatitis B; format: in vivo, human; set-up: T-Lymphocytes (E-RFC): unit not given here
Protocol: In accord with a USSR Ministry of Health decision 125 children suffering with chronic persistent hepatitis B were entered into this trial over a two month period. Group 1 consisted of 35 children who received decaris immunomodulatory therapy; Group 2, 38 children who received thymalin treatments; Group 3, […] who received L-Glu-L-Trp; and, Group 4, 32 children who received only conventional symptom specific therapy.
L-Glu-L-Trp was administered at a dose of 2 μg/kg of body mass, im, daily for […], and a repeat (identical) course of treatment was administered 10 days after termination of the first course.

[2] = Ophthalmic diseases, parabulbar or conjunctival instillation; format: in vivo, human
Protocol: Forty one patients (41; 17 men and 24 women; ranging in age from 17 to 68 years) with various eye diseases of infectious and non-infectious origin were treated with L-Glu-L-Trp. Patients having the following infectious, and non-infectious, ophthalmic diseases were entered into the trial: a) nonviral conjunctivitis, keratitis, chronic uveitis, persistent sties, and, focal chorioretinitis; and, b) retinal pigment dystrophy, Grenblad-Stranberg syndrome, and maculophathy, respectively. Five patients were Class II invalids due to vision impairment, 4 were Class III, and 32 were impaired but not invalid. […] L-Glu-L-Trp was administered daily in a single 0.1 mL (10 μg) dose by the parabulbar route (Group 1; n=21), or alternatively one drop of the dipeptide solution (5 μg) was delivered into the conjunctival cavity twice daily on each of 5 consecutive days (Group 2; n=20). Thirty six patients undergoing conventional therapy served as a control group (Group 3; n=36).
Clinical diagnoses of patients entered into Group 1 were as follows: 4 subjects had diagnosed adenoviral conjunctivitis; 2 subjects, recurring eyelid sties; 3 subjects, chronic serous-plastic uveitis; 3 subjects, central chorioretinitis; 5 subjects, central retinal dystrophy in both eyes; 4 subjects, pigment degeneration of the retina.
Clinical diagnoses of patients entered into Group 2 were as follows: namely, 7 subjects had diagnosed chronic serous-plastic uveitis, and 13 subjects adenoviral conjunctivitis.
Vision was assessed using standard measurements: i.e., field of vision, visual acuity, electrophysiological indices. Ophthalmascopic examination was used to evaluate and score corneal epithelial integrity, extent of edema and infiltration of the cornea (all strata), uveitis, retinal inflammation (edema, focal and peripheral changes, exudation, hemorrhage, plasmohemorrhagia), and expansion in the vitreous body. Immune parameters in peripheral blood were also assessed. Following treatment, the trial subjects were followed for not less than 12 months.

[3] = Allergies (hayfever protocol); set-up: species or system human; details: in vivo
Protocol: Twenty nine patients (29) with various diagnosed allergies were treated on a daily basis for 5-7 days with L-Glu-L-Trp at a dose of […] delivered im or by the intranasal route. Seventeen patients (17) in the control group received conventional therapy.

[4] = Acute osteomyelitis in adolescents (Protocol D); format: in vivo, human
Protocol: In 29 adolescents with osteomyelitis, 2 μg/kg L-Glu-L-Trp was administered im daily on each of 3-7 consecutive days, depending upon the severity of the infection. The control group consisted of 13 children who received conventional therapy with antibiotics.

Herpes Zoster = details: on the average
E-RFC = assay: In vitro sheep red blood cell rosette forming response of gastritis patients' T-lymphocytes; format: cell-based, human; details: 22 patients
From the text: Twenty two patients (all men aged 18-30 years) suffering from chronic primary gastritis and gastro-duodenitis were entered into the trial. Diagnosis was based on physical examination, and clinical and laboratory investigations including roentgenoscopy and endoscopic examination of the stomach and duodenum. Patient entry criteria was further conditioned on the results of laboratory tests for i) pre-treatment immune indices (i.e., numbers of lymphocytes, T-, and B-lymphocytes, etc.; TABLE 46) and ii) the in vitro sheep red blood cell rosette forming response of T-lymphocytes to L-Glu-L-Trp, (i.e., whether in vitro incubation of patient peripheral blood lymphocytes with L-Glu-L-Trp increased the percentage of E-RFC). […] These twelve patients were entered into the trial.

Gingivitis = assay: Gingivitis; set-up: species or system human; details: in vivo
Protocol: Patients were treated for gingival disease by subcutaneous administration of L-Glu-L-Trp into the area of the gingiva. […] Approximately 160 patients were studied, 80 patients were treated with L-Glu-L-Trp and an equal number were treated using conventional therapy (control). […] Normalization of immunologic indices and coagulation in the L-Glu-L-Trp treated patients was correlated with favorable clinical outcome.

[5] = Chronic liver disease: jaundice and systemic toxicity; set-up: species or system human; details: in vivo
[6] = Non-Responders, After L-Glu-L-Trp (n = 7)
[7] = Responders, L-Glu-L-Trp Therapy (n = 12)

## L-Glu-L-Trp
[1]; 6-12 months
  Children with a decrease in the number of respiratory infections: 92.9%
[1]; after first course
  T-lymphocytes in peripheral blood: statistically significant increase was noted in both the absolute number and percentage of T-lymphocytes
[1]; asthma patients
  Reduction in attacks of bronchial asthma: 4.2 fold
[1]; in vivo
  Average reduction in the number of infections: 3.6 fold
  Decrease of average length of illness: 4 to 5 days
  Patients in whom food allergies disappeared: 67.8%
Hepatitis B; Group 1, Pre-Treatment ALCT Activity None
  Percent of Subjects Disease Free at 6 Months After Treatment: 100%
Hepatitis B; Group 2, Pre-Treatment ALCT Activity Moderate
  Percent of Subjects Disease Free at 6 Months After Treatment: 80%
Hepatitis B; Group 3, Pre-Treatment ALCT Activity High
  Percent of Subjects Disease Free at 6 Months After Treatment: 0%
Hepatitis B; [6]
  ALCT Cytotoxic Index: 44.55 ± 6.8
  ALCT: % of subjects: 57.14 ± 18.7%
  Ratio OKT4^+/OKT8^+: 0.82 ± 0.07
  T-Lymphocytes (E-RFC): 1382 ± 76 ×10^9
  T-Lymphocytes (E-RFC) % Normal Value: (85%)
  T-Lymphocytes (E-RFC) % of PBL: 56.7 ± 3.24 % of PBL
Hepatitis B; [7]
  ALCT Cytotoxic Index: 50.4 ± 5.5
  ALCT: % of subjects: 16.7 ± 13.2%
  Ratio OKT4^+/OKT8^+: 1.08 ± 0.07
  T-Lymphocytes (E-RFC): 1227 ± 65 ×10^9
  T-Lymphocytes (E-RFC) % Normal Value: (76%)
  T-Lymphocytes (E-RFC) % of PBL: 47.33 ± 2.2 % of PBL
Hepatitis B; highest ALCT levels
  Stable remission over 6 months: 0%
Hepatitis B; in vivo
  Patients with increased E-RFC T-lymphocytes and ADCC decreased to normal (responders): about 63%
Hepatitis B; moderate ALCT activity
  Stable remission over 6 months: 80%
Hepatitis B; patients lacking demonstrable ALCT
  Stable remission over 6 months: One hundred percent
[2]; Group 1, parabulbar
  Patients with “good response”: 9
  Patients with “marked favorable response”: 9
[2]; Group 2, instillation
  Patients with “good response”: 2
  Patients with “marked favorable response”: 18
[2]; in vivo
  Laboratory effects: increase in the number of circulating peripheral blood B- and T-lymphocytes
  Patients with “poor response”: 3
[2]; infectious eye diseases
  Subjects in whom treatment was found effective: 66.7%
[2]; infectious eye diseases, parabulbar introduction
  Patients with marked positive response: 75%
[2]; instillation
  Patients with good response: 10%
  Patients with marked positive response: 90%
[2]; marked responses
  Faster recovery than control group, adenoviral conjunctivitis: 10 to 13 days
  Rise in visual acuity, chronic serous-plastic uveitis: > 0.1
[2]; parabulbar introduction
  Patients with good response: 15%
[3]
  Clinical outcome: disappearance of allergic reactions
[4]; 1 of 29
  Failure rate (wounds failed to heal): 3%
[4]; in vivo
  T-cell counts: nearly doubled
  Wounds closed with healing earlier than control group: 2 to 3 days
[4]; on the average
  Fevers resolved sooner: 1 to 2 days
Herpes Zoster
  Healing earlier than in the control group: 40%
E-RFC
  Patients with a positive in vitro response (increased E-RFC): 55%
Gingivitis
  Clinical outcome: arrest of gingival disease
[5]
  Seropositive patients with a positive response to therapy: 21 of the 29
  Seropositive patients with no detectable change: 8
